Experiments:
Assay type in all cases: in vivo, rabbit
[1] = system: collagen type IV; test: Alkali burn model: IHC collagen type IV intensity in anterior and posterior stroma (ImageJ); conditions: one month
Procedure: Worth, TX) and a 5 mm diameter circular Whatman No. 1 filter paper (Cat #1001-6508, Fisher Scientific) wetted with 100 μl of 1N NaOH solution. Following the alkali burn injury, the cornea was irrigated profusely with BSS. Each injured cornea also received one drop of ciprofloxacin (Alcon, Ft. Worth, TX, USA) ten minutes after surgery and four times a day for one week and at least 15 minutes apart from the study medications. […] Worth TX), at least 5 minutes apart, or 4) 50 μl of BSS. Multiplex immunohistochemistry (IHC) was performed using previously described methods^8 and primary antibodies (Table 7) confirmed by western blotting and IHC to recognize rabbit antigens or isotypic control antibodies (Thermo Fisher Scientific, Waltham, MA), and secondary fluorescent tagged antibodies (Table 7). The collagen type IV antibody (Cat. #AB769, Millipore, Temecula CA) was raised against purified human and bovine collagen type IV that had been affinity purified with human and bovine collagen type IV crosslinked to agarose and cross-absorbed by the manufacturer with human and bovine collagens type I, II, III, V and VI to eliminate cross-reactivity. This collagen type IV antibody was shown previously to bind rabbit collagen IV in IHC,^8,9 and recognizes the alpha-1/alpha-2 chains but not the alpha-3 to alpha-6 chains. The keratocan antibody is raised against peptide […]-OH (SEQ ID NO:1). This marker was used to identify keratocytes in situ. […] All corneas in each group had IHC for collagen type IV. Images from each cornea were converted to uniform 300 DPI, 875×568 pixel, files. […] The staining intensity within each box was determined with the analyze histogram function and the mean of three boxes was the intensity value in the anterior or posterior stroma for that cornea.

[2] = system: α-SMA-positive myofibroblasts; test: Alkali burn model: IHC α-SMA-positive stromal area and intensity (ImageJ); conditions: one month
Procedure: Alkali injuries were produced in one eye of rabbits with previously published methods^10 using 1N sodium hydroxide (Sigma, St. Louis, MO) in balanced salt solution (BSS, 0.64% sodium chloride, 0.075% potassium chloride, 0.048% calcium chloride dihydrate, […] magnesium chloride hexahydrate, 0.39% sodium acetate trihydrate, 0.17% sodium citrate dihydrate, pH 7.5, Alcon, H. Worth, TX) and a 5 mm diameter circular Whatman No. 1 filter paper (Cat #1001-6508, Fisher Scientific) wetted with 100 μl of 1N NaOH solution. Following the alkali burn injury, the cornea was irrigated profusely with BSS. Each injured cornea also received one drop of ciprofloxacin (Alcon, Ft. Worth, TX, USA) ten minutes after surgery and four times a day for one week and at least 15 minutes apart from the study medications.
Worth TX), at least 5 minutes apart, or 4) 50 μl of BSS. […]
The area of the α-SMA-positive stroma in mm^2 and the total α-SMA opacity in pixels were quantitated using standardized images obtained with a 10× objective on a Leica DM6B upright microscope equipped with an automated stage and Leica 7000 T camera using the LAS X software (Leica Microsystems, GmbH, Wetzlar, Germany). The means of three central corneal sections were analyzed from each cornea to provide the area of α-SMA-positive stroma and the total α-SMA opacity. The area of α-SMA-positive stroma in mm^2 for each cornea was determined from full diameter and thickness central corneal section images (all converted to 300 DPI, 885 width×500 height, files with identical +50% brightness increase in Photoshop for all images) with the ImageJ 1.53a analysis software using the freehand selection tool to delineate the area(s) of α-SMA-positive staining. […] In these same sections for each cornea, the total α-SMA-positive intensity in pixels was also determined with ImageJ, similarly by using the summation if separate α-SMA-positive areas were present. […]

[3] = system: collagen type IV; test: -9D PRK model: IHC stromal collagen type IV pixels (ImageJ); conditions: losartan-treated group, one month
Procedure: Twelve female 12- to 15-week-old New Zealand white rabbits weighing 2.5 to 3 kg each were included. Starting 24 hours prior to surgery and continuing 5 days after PRK, all rabbits received 60 mL children's liquid acetaminophen (Johnson & Johnson, Ft. Washington, PA, USA) per 1 L of drinking water. One eye of each rabbit was randomly selected to have −9.0 D (on myopia scale) PRK and received 2 drops of topical 1% proparacaine hydrochloride (Alcon, Fort Worth, TX, USA) prior to the surgery.
No corticosteroids were administered in either group.
Corneal Cryo-Fixation and Sectioning Rabbits were euthanized while under ketamine-xylazine general anesthesia with 100 mg/kg Beuthanasia (Shering-Plough, Kenilworth, NJ, USA) by intravenous injection followed by bilateral pneumothorax. The corneo-scleral rims were removed with sharp Westcott scissors (Fairfield, CT, USA) and 0.12 forceps (Storz, St Louis, MO, USA). […]
All images were converted to 300 DPI 900 pixel width×672 pixel height images with Photoshop 22.1.1 (Adobe, San Jose, CA). The mean pixels of stromal α-SMA or stromal collagen type IV were determined in a 900-pixel wide×235-pixel high rectangle (for either α-SMA or collagen type IV quantitation) with ImageJ in three sections for each cornea using the image panels showing only the color of interest. […]

## CCCCc1nc(Cl)c(CO)n1Cc1ccc(-c2ccccc2-c2nn[nH]n2)cc1 [losartan]
[1]
  COL IV staining intensity in the posterior stroma vs vehicle treatment: significantly different
  mean intensity units of collagen type IV in the anterior stroma compared to vehicle treatment: significantly decreased
[2]
  total α-SMA area vs vehicle control group: trend
[2]; topical six times per day
  localization of α-SMA-positive myofibroblasts in the stroma: confined mostly to the posterior half of the stroma
[3]
  collagen type IV localization (IHC): localized primarily to the epithelial basement membrane

— patent publication US20240350402A1, “TOPICAL DRUG TREATMENT TO PREVENT OR REDUCE CORNEAL SCARRING” (The Cleveland Clinic Foundation, priority 2021, published 2024)
